Measured values taken from patent publication US20260070927A1, “INDAZOLE MACROCYCLES FOR THE TREATMENT OF AUTOIMMUNE DISEASE” (Hoffmann-La Roche Inc., priority 2022, published 2026).
Read-outs that look alike come from different tables or passages of the source.

Assays:
[1] = biological target: human stimulator of interferon genes (STING) (139-379) (Homo sapiens (Human), UniProt Q86WV6); assay: Microliter plate-based TR-FRET competition-binding assay for binders of STING; conditions: Alexa488 probe, read-out: FRET_IC50
Sequence of human stimulator of interferon genes (STING) (139-379) (Q86WV6 139-379): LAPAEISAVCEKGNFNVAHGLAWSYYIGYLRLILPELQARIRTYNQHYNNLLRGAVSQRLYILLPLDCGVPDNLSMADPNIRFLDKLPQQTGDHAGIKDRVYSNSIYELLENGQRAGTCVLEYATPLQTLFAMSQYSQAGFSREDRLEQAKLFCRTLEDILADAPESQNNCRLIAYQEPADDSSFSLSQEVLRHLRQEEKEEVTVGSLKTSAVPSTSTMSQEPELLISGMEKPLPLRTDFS
Method in brief: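 E. coli-expressed C-terminal flag-tagged STING (139-379) at 2.5 nM with 2.5 nM Tb-anti-Flag and 250 nM Alexa488-labelled active-site probe, 30 min at room temperature. TR-FRET 520/485 nm ratio after 320 nm excitation. Percent inhibition calculated relative to the 2′3′cGAMP positive control.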

[2] = Metabolic (liver microsomal) stability assay; conditions: human liver microsomes, 1 μM test compound
Protocol: (§1) The liver microsomal stability assay is used for early assessment of metabolic stability of a test compound in liver microsomes.
(§2) Liver microsomes were preincubated with test compound for 10 minutes at 37° C. in 100 mM potassium phosphate buffer, pH 7.4. The reactions were initiated by adding NADPH regenerating system. The final incubation mixtures contained 1 μM test compound, 0.5 mg/mL liver microsomal protein, 1 mM MgCl2, 1 mM NADP, 1 unit/mL isocitric dehydrogenase and 6 mM isocitric acid in 100 mM potassium phosphate buffer, pH 7.4. After incubation times of 0, 3, 6, 9, 15 and 30 minutes at 37° C., 300 μL of cold acetonitrile (including internal standard) was added to 100 μL incubation mixture to terminate the reaction. Following precipitation and centrifugation, the amount of compound remaining in the samples were determined by LC-MS/MS. Controls of no NADPH regenerating system at zero and 30 minutes were also prepared and analyzed.

[3] = system: STING (IFN-β in hPBMC); assay: hPBMC cytokine functional assay (IFN-β decrease after Baculovirus stimulation); assay type: cell-based; conditions: Homo sapiens, Baculovirus MOI 40, 24 hours, read-out: hPBMC_IC50
Method in brief: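 Thawed hPBMC (70K cells/well) rested ≥3 h, then dosed with compound (final 0.5% DMSO) and infected with Baculovirus at MOI 40. Secreted IFN-β read by HTRF after 24 h at 37 °C. Cell viability checked in parallel by CellTiter-Glo.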

[4] = biological target: hERG channel (Homo sapiens (Human), UniProt Q12809); assay: hERG channel inhibition assay (patch-clamp, CHOhERG cells); assay type: cell-based; conditions: for IC20: human, CHO cells stably expressing hERG (CHOhERG)
Sequence of hERG channel (Q12809 whole entry): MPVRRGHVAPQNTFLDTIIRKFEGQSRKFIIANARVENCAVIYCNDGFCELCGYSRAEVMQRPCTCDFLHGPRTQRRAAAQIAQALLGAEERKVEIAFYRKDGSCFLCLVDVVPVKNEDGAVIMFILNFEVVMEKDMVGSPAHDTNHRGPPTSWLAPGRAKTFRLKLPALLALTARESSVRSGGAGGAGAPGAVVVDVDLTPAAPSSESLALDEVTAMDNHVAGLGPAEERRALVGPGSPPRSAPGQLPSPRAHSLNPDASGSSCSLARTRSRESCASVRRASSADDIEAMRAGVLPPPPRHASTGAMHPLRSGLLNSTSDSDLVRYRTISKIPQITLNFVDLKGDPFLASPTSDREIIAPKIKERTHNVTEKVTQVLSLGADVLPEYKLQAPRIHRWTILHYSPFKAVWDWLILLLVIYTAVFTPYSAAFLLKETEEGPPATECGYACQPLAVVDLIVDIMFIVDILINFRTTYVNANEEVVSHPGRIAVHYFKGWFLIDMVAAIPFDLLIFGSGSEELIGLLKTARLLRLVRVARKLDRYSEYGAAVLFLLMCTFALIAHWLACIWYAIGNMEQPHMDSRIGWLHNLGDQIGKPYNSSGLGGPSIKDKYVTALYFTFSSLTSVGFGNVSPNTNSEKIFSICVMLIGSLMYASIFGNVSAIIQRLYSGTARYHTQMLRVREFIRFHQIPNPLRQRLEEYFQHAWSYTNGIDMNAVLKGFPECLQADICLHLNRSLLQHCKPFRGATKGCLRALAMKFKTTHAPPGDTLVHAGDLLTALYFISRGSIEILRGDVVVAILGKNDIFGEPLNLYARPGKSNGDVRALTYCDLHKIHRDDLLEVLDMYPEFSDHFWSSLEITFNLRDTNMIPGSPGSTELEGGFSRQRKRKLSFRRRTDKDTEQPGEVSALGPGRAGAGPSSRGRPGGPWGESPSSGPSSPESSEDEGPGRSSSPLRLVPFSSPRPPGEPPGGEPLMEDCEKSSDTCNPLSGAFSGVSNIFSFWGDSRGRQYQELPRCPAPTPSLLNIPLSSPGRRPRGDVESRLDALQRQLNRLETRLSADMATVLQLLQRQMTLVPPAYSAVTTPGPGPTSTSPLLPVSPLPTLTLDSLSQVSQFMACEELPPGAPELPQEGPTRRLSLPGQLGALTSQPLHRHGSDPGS
From the text: The hERG K^+ channels were cloned in humans and stably expressed in a CHO (Chinese hamster ovary) cell line. CHOhERG cells (obtained from Roche Palo Alto LLC Cell Core Facilities) were used for patch-clamp (voltage-clamp, whole-cell) experiments. Cells were stimulated by a voltage pattern to activate hERG channels and conduct IKhERG currents (rapid delayed outward rectifier potassium current of the hERG channel). After the cells were stabilized in an internal solution that contains (in mM): KCl 10, KF 100, NaCl 10, HEPES 10, EGTA 20, pH=7.2 with KOH (osmolarity 260-300 mOsm) for a few minutes, the amplitude and kinetics of IKhERG were recorded at a stimulation frequency of 0.1 Hz (6 bpm). Thereafter, the test compound was dissolved in extracellular solution that contains (in mM): NaCl 150, KCl 4, CaCl2 1.2, MgCl2 1, HEPES 10, glucose 5, pH 7.2-7.4 with NaOH (osmolarity 290-330 mOsm), and was added to the preparation at increasing concentrations. For each concentration, an attempt was made to reach a steady-state effect, usually, this was achieved within 3-10 min at which time the next highest concentration was applied. The amplitude and kinetics of IKhERG are recorded in each concentration of the drug which were compared to the control values (taken as 100%).

[5] = Single dose pharmacokinetics (SDPK) study in male C57BL/6J mice; assay type: in vivo; conditions: mouse; for clearance / AUC / half-life / Vd / Cmax: male, C57BL/6J, plasma; for half-life: read-out: T½ (converted); for Vd: read-out: Vss; for F: dose normalized AUCo-last after IV 1 mg/kg and PO 10 mg/kg
Protocol: Single Dose Pharmacokinetics (SDPK) Study in Male C57BL/6J Mice Pharmacokinetic properties of compounds were assessed by single dose PK studies in Male C57BL/6J Mice (vendor: WTLH-BJ). Briefly, two groups of animals were administered a single dose of respective compound intravenously (IV, bolus) at 1 mg/kg or orally (PO, by gavage) at 10 mg/kg. Blood samples were collected via Jugular vein at 5 min (only for IV), 15 min, 30 min, 1 h, 2 h, 4 h, 7 h and 24 h post-dose. Blood samples were placed into pre-chilled commercial EDTA-K2 tubes (vendor: Jiangsu Kangjian medical supplies co., LTD) and centrifuged at 3,200 g for 10 min at 4° C. to separate plasma from the samples. After centrifugation, the resulting plasma was transferred to clean tubes for bioanalysis with LC/MS/MS. The pharmacokinetic parameters were calculated using noncompartmental analysis. The volume of distribution (Vss), half-life (T1/2) and clearance (CL) were obtained based on the plasma concentration-time curve after IV dose. The peak concentration (Cmax) was recorded directly from experimental observations after PO dose. The area under the plasma concentration-time curve (AUCo-last) was calculated using the linear trapezoidal linear interpolation rule up to the last detectable concentration. The bioavailability (F) was calculated based on the dose normalized AUCo-last after IV and PO dose.

[6] = microsomes
Protocol: as §1, §2

[7] = IV 1 mg/kg, read-out: IV AUCo-last
[8] = PO 10 mg/kg, read-out: PO AUCo-last

Compound	IC50 [1] [µM]	Clearance of human microsome [2] [mL/min/kg]	IC50 [3] [µM]	IC50 [4] [µM]	IC20 [4] [µM]	clearance ([5]; IV 1 mg/kg) [mL/min/kg]	AUC [5, 7] [ng·h/mL]	half-life ([5]; IV 1 mg/kg) [min]	Vd ([5]; IV 1 mg/kg) [L/kg]	Cmax ([5]; PO 10 mg/kg) [ng/mL]	AUC [5, 8] [ng·h/mL]	F [5] [%]	Clearance of human microsome [6] [mL/min/kg]
COc1cc(F)ccc1-n1ncc2c(N3C[C@@H]4C[C@H]3C(=O)N(C)CCCc3c5c(cccc5nn3C)-c3ccnc(n3)N4)ncnc21 [Example 6, (8S,11S)-10-[1-(4-fluoro-2-methoxy-phenyl)pyrazolo[3,4-d]pyrimidin-4-yl]-13,18-dimethyl-5,7,10,13,18,19,26-heptazapentacyclo[15.6.1.1^2,6.1^8,11.0^20,24]hexacosa-1(23),2,4,6(26),17(24),19,21-heptaen-12-one]	0.005	15.7	0.588	> 20	> 10	14.5	1120	48	0.9	2990	4740	42	
CN1CCCc2c3c(cccc3nn2C)-c2cccc(n2)O[C@H]2C[C@@H](C1=O)N(c1ncnc3c1cnn3-c1ccc(F)cc1F)C2 [Example 9, (8S,11S)-10-[1-(2,4-difluorophenyl)pyrazolo[3,4-d]pyrimidin-4-yl]-13,18-dimethyl-7-oxa-10,13,18,19,26-pentazapentacyclo[15.6.1.1^2,6.1^8,11.0^20,24]hexacosa-1(23),2(26),3,5,17(24),19,21-heptaen-12-one]	0.0178	11.6	1.58	> 20	> 10								
Cn1nc2cccc3c2c1CCCNC(=O)[C@@H]1C[C@@H](CN1c1ncnc2c1cnn2-c1ccc(F)cc1F)Oc1ccnc-3c1 [Example 10, (8S,11S)-10-[1-(2,4-difluorophenyl)pyrazolo[3,4-d]pyrimidin-4-yl]-18-methyl-7-oxa-3,10,13,18,19-pentazapentacyclo[15.6.1.1^2,6.1^8,11.0^20,24]hexacosa-1(23),2(26),3,5,17(24),19,21-heptaen-12-one]	0.0051	8.3		> 10	8.2								
CN1CCCc2c3c(cccc3nn2C)-c2ccnc(n2)O[C@H]2C[C@@H](C1=O)N(c1ncnc3c1cnn3-c1ccc(F)cc1F)C2 [Example 11, (8S,11S)-10-[1-(2,4-difluorophenyl)pyrazolo[3,4-d]pyrimidin-4-yl]-13,18-dimethyl-7-oxa-5,10,13,18,19,26-hexazapentacyclo[15.6.1.1^2,6.1^8,11.0^20,24]hexacosa-1(23),2(26),3,5,17(24),19,21-heptaen-12-one]	0.0214	6.1	0.803	> 20	> 10	11.1	1500	60	0.8	2780	7120	48	
COc1cc(F)ccc1-n1ncc2c(N3C[C@@H]4C[C@H]3C(=O)N(CCCN3CCOCC3)CCCc3c5c(cccc5nn3C)-c3cccc(n3)N4)ncnc21 [Example 43, (8S,11S)-10-[1-(4-fluoro-2-methoxy-phenyl)pyrazolo[3,4-d]pyrimidin-4-yl]-18-methyl-13-(3-morpholinopropyl)-7,10,13,18,19,26-hexazapentacyclo[15.6.1.1^2,6.1^8,11.0^20,24]hexacosa-1(23),2(26),3,5,17(24),19,21-heptaen-12-one]	0.0035	12.0	0.292	> 20	> 10								
COc1cc(F)ccc1-n1ncc2c(N3C[C@@H]4C[C@H]3C(=O)N(CCCN3CCOCC3)CCCc3c5c(ccc(F)c5nn3C)-c3cccc(n3)N4)ncnc21 [Example 45, (8S,11S)-21-fluoro-10-[1-(4-fluoro-2-methoxy-phenyl)pyrazolo[3,4-d]pyrimidin-4-yl]-18-methyl-13-(3-morpholinopropyl)-7,10,13,18,19,26-hexazapentacyclo[15.6.1.1^2,6.1^8,11.0^20,24]hexacosa-1(23),2(26),3,5,17(24),19,21-heptaen-12-one]	0.0039	15.9	0.569										
COc1cc(F)ccc1-n1ncc2c(N3C[C@@H]4C[C@H]3C(=O)N(CCCN3CCOCC3)CCCc3c5c(cccc5nn3C)-c3ccnc(n3)N4)ncnc21 [Example 47, (8S,11S)-10-[1-(4-fluoro-2-methoxy-phenyl)pyrazolo[3,4-d]pyrimidin-4-yl]-18-methyl-13-(3-morpholinopropyl)-5,7,10,13,18,19,26-heptazapentacyclo[15.6.1.1^2,6.1^8,11.0^20,24]hexacosa-1(23),2(26),3,5,17(24),19,21-heptaen-12-one]	0.0072												6.1
